Test results from ChEMBL document CHEMBL1145720, “Daleformis, a new phytoalexin from the roots fo Dalea filiciformis: an inhibitor of endothelin converting enzyme” (J Nat Prod, 1997).
pIC50: −log10 of the molar value. Calls of active or inactive are those of the source. The rule behind the calls is not given here.

Assay: Inhibition of ECE

| SMILES | Activity | pIC50 |
| --- | --- | --- |
| CC(=O)Oc1ccc2c(c1)O[C@@H]1c3ccc4c(c3O[C@@H](OC(C)=O)[C@H]21)C=CC(C)(C)O4 | inactive |  |
| CC1(C)C=Cc2c(ccc3c2O[C@@H](O)[C@@H]2c4ccc(O)cc4O[C@H]32)O1 [DALEFORMIS] |  | 5.05 |
